Where two headings read alike, the source gives them in different places.
Key:
H. pylori strains = experiment: Minimal inhibitory concentration assay (agar dilution); assay type: cell-based, Helicobacter pylori
Source text: Fourteen H. pylori strains were used in this study. NCTC 11637 and NCTC 26695 strains were purchased from American Type Culture Collection. Sydney Strain-1 (SS1) was kindly provided by Prof. Richard Ferrero of Monash University, Australia. Clinical isolate ICDC 111001 was provided by Prof. Zhang Jian-zhong of the Chinese Center for Disease Control and Prevention, China. Ten clinical isolates (Hp1868, Hp1869, Hp1870, Hp1871, Hp1872, Hp1873, Hp1874, Hp1875, Hp1876, and Hp1877) were obtained from Renji Hospital, Shanghai Jiaotong University.
All strains were cultured in Columbia agar base containing 7% sheep blood at 37 °C in a micro-aerophilic environment (5% O2, 10% CO2, and 85% N2). After 3 days, H. pylori was scraped and suspended in phosphate buffered saline (PBS). Turbidimetry was employed to adjust the concentrations of different H. pylori strains (turbidity equivalent to 1.0 McFarland standard). Crude HPU was obtained according to the method described by Matsubara et al.[42]
In this study, different concentrations (12.5, 25, 50, and 100 μg/mL) of berberine, palmatine, epiberberine, jatrorrhizine, and coptisine were used to evaluate antimicrobial activity against the standard H. pylori strain NCTC 11637. The agar dilution method was then used to analyse the antibacterial effects of coptisine against two H. pylori standard strains (SS1 and NCTC 26695) and eleven clinical isolates (ICDC 111001, HP 1868, HP 1869, HP 1870, HP 1871, HP 1872, HP 1873, HP 1874, HP 1875, HP 1876, and HP 1877). In this assay, 100 μL of H. pylori suspension (McFarland = 1.0) was added to the test compound-containing or DMSO-containing (control) Columbia blood agar plate. CLR and MET were used as positive controls in this experiment. Minimum inhibitory concentration (MIC) was defined as the lowest concentration at which no strain growth was observed by visual examination after 3 days. This experiment was repeated twice.

H. pylori urease (HPU) = molecular target: T1, H. pylori urease (HPU) (Helicobacter pylori, UniProt P69996); experiment: Progress curve analysis; assay type: biochemical; settings: 0.63, 1.25 and 2.50 mM Cop, non-pre-incubated and pre-incubated systems
T1 construct: Crude HPU was obtained according to the method described by Matsubara et al; endogenous in cells; host or cells: cultured Helicobacter pylori (strain not specified)
Method: (§1) Reaction progress curves for urea hydrolysis in the non-pre-incubated and pre-incubated systems were generated by plotting the concentration of ammonia generated as a function of the incubation time P(t) in the absence or presence of coptisine. Coptisine and urease were mixed immediately before the reaction in the non-pre-incubated system and were mixed and incubated for 20 min before urea was added to initiate the reaction in the pre-incubated system. Urease activity relative to the standard assay was determined at different time intervals.

jack bean urease (JBU) = molecular target: T2, jack bean urease (JBU) (Canavalia ensiformis, UniProt P07374); experiment: Progress curve analysis; assay type: biochemical; settings: 0.63, 1.25 and 2.50 mM Cop, non-pre-incubated and pre-incubated systems
T2 construct: purchased Sigma Aldrich (Steineheim, Germany) type III (catalogue number not given)
Method: as §1

UreG dimer = molecular target: T3, UreG dimer (Helicobacter pylori, UniProt Q09066); experiment: UreG dimer formation inhibition assay (size exclusion chromatography); assay type: biochemical; settings: 500 μM coptisine, 300 μM GTP, 5 μM UreG monomer, 2.5 μM NiSO4, 60 min
T3 construct: HisSUMO (N, cleaved yes); made in house; host or cells: Escherichia coli
Method: Size exclusion chromatography technology was used to analyse the effects of coptisine on UreG dimer formation. Experiment was carried out in the buffer containing 5 μM UreG monomer and 2.5 μM NiSO4, and divided into the following three groups: 300 μM GTP (positive control), buffer A (negative control), and 300 μM GTP +500 μM coptisine. After reaction for 60 min, samples were then injected into a Superdex 75 analytical gel filtration column pre-equilibrated with buffer A.

UreG dimers = molecular target: T4, UreG dimers (Helicobacter pylori, UniProt Q09066); experiment: Nickel uptake assay (dialysis, atomic absorption spectroscopy); assay type: biochemical; settings: 25, 50 and 100 μM coptisine, 2.5 μM UreG dimer, versus control, all p < 0.01
T4 construct: HisSUMO (N, cleaved yes); made in house; host or cells: Escherichia coli
Method: UreG dimers were obtained using GTPγS as described previously. Briefly, the UreG dimer was purified by incubating apo-UreG at 3 mg/mL on ice with 1 mM GTP, 2 mM MgSO4, and 0.5 mM NiSO4 for 15 min. Nickel-charged UreG dimers were then separated from excess GTP and nickel using a Sephadex G25 desalting column. UreG dimers (2.5 μM) were injected into dialysis bag (6–8 kDa) and mixed with different concentrations of coptisine (25, 50, or 100 μM) or DMSO (control). The dialysis bag was sealed and placed in beakers containing UreG dimer buffer at 37 °C in a water bath. After 30 min, dialysis bags were placed in fresh buffer and the sample was incubated for 2 h at 4 °C with continuous shaking to initiate dialysis. The dialysis process was repeated three times. Samples were then removed and nickel concentrations were measured using atomic absorption spectroscopy (AA-7000, SHIMADZU). Nickel concentration was determined by comparing measurements against a standard curve of known nickel concentrations.

T2 sequence (P07374 whole entry, looked up): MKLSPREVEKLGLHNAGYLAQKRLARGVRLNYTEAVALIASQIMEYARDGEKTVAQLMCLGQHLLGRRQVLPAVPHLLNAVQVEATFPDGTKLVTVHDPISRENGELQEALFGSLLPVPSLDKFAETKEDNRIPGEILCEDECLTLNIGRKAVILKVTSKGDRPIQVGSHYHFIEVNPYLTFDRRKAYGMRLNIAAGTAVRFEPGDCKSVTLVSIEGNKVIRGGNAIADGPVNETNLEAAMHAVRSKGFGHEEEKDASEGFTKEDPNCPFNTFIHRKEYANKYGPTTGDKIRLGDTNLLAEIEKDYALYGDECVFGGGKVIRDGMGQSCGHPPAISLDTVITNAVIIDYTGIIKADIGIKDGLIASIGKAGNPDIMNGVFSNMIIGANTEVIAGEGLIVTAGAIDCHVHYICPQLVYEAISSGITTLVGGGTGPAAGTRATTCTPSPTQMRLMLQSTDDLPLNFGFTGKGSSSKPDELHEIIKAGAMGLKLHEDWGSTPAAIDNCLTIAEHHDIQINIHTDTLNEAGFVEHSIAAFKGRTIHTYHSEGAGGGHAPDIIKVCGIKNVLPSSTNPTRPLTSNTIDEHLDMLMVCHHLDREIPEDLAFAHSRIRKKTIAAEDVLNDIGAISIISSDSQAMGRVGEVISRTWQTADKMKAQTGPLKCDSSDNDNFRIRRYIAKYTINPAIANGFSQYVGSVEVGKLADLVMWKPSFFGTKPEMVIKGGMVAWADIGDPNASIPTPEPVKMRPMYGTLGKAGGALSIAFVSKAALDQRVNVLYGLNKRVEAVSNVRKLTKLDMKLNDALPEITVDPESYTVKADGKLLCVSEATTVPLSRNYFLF
T4 sequence (Q09066 whole entry): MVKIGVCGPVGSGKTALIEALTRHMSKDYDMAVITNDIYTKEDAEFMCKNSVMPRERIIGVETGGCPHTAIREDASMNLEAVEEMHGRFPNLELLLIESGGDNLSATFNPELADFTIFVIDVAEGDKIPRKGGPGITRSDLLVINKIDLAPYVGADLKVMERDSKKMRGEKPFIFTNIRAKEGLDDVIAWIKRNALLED
T3 sequence (Q09066 whole entry): as above
T1 sequence (P69996 whole entry): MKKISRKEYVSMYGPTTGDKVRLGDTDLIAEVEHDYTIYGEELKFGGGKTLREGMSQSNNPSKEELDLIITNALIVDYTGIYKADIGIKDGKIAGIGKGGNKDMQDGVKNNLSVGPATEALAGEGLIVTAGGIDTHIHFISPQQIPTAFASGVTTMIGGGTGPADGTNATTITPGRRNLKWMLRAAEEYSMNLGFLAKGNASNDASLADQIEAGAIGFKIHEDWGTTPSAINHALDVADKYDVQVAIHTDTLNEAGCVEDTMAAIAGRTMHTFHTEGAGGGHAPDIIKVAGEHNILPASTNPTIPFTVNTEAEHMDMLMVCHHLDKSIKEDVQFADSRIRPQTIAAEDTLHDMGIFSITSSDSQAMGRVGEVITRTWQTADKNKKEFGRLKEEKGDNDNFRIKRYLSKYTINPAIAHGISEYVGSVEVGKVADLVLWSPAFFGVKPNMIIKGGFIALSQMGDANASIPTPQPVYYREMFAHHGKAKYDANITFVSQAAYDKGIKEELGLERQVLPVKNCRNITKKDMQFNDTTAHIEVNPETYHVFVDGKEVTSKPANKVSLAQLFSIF
T1 sequence (P14916 whole entry, further chain): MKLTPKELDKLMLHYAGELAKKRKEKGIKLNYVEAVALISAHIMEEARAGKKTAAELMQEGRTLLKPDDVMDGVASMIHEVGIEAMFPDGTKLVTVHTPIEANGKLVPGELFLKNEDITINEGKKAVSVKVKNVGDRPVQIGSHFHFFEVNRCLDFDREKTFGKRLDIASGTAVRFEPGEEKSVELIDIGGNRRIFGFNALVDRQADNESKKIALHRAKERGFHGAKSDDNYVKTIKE

Which results are given for `c1c2c(cc3c1OCO3)-c1cc3ccc4c(c3c[n+]1CC2)OCO4` [Coptisine]?
MIC (H. pylori strains; Helicobacter pylori, NCTC11637, pH 7.2, standard strain NCTC 11637, pH 7.2): 25 µg/mL; MIC (H. pylori strains; Helicobacter pylori, NCTC26695, strain NCTC 26695, pH = 7.2): 25 µg/mL; MIC (H. pylori strains; Helicobacter pylori, clinical isolate HP 1868, pH = 7.2): 50 µg/mL; MIC (H. pylori strains; Helicobacter pylori, clinical isolate HP 1869 (MET resistance), pH = 7.2): 50 µg/mL; MIC (H. pylori strains; Helicobacter pylori, clinical isolate HP 1870 (CLR and MET resistance), pH = 7.2): 25 µg/mL; MIC (H. pylori strains; Helicobacter pylori, clinical isolate HP 1871 (MET resistance), pH = 7.2): 25 µg/mL; MIC (H. pylori strains; Helicobacter pylori, clinical isolate HP 1872, pH = 7.2): 25 µg/mL; MIC (H. pylori strains; Helicobacter pylori, clinical isolate HP 1873, pH = 7.2): 50 µg/mL; MIC (H. pylori strains; Helicobacter pylori, clinical isolate HP 1874, pH = 7.2): 50 µg/mL; MIC (H. pylori strains; Helicobacter pylori, clinical isolate HP 1875, pH = 7.2): 50 µg/mL; MIC (H. pylori strains; Helicobacter pylori, clinical isolate HP 1876 (CLR and MET resistance), pH = 7.2): 50 µg/mL; MIC (H. pylori strains; Helicobacter pylori, clinical isolate HP 1877, pH = 7.2): 50 µg/mL; MIC (H. pylori strains; Helicobacter pylori, clinical isolate ICDC 111001, pH = 7.2): 25 µg/mL; MIC (H. pylori strains; Helicobacter pylori, read-out: MICs against eleven clinical isolates, eleven clinical isolates from three sites in China): 25 to 50 µg/mL; MIC (H. pylori strains; Helicobacter pylori, strain SS1, pH = 7.2): 25 µg/mL; MIC (H. pylori strains; clinical isolate HP 1869 (MET resistance), pH = 7.2): 50 µg/mL; MIC (H. pylori strains; clinical isolate HP 1870 (CLR and MET resistance), pH = 7.2): 25 µg/mL; MIC (H. pylori strains; clinical isolate HP 1871 (MET resistance), pH = 7.2): 25 µg/mL; MIC (H. pylori strains; clinical isolate HP 1876 (CLR and MET resistance), pH = 7.2): 50 µg/mL; MIC (H. pylori strains; standard strain NCTC 11637, pH 7.2): 25 µg/mL; MIC (H. pylori strains; strain NCTC 26695, pH = 7.2): 25 µg/mL; MIC (H. pylori strains; strain SS1, pH = 7.2): 25 µg/mL; binding behaviour from reaction progress curves, HPU (H. pylori urease (HPU)): slow-binding inhibition; binding behaviour from reaction progress curves, JBU (jack bean urease (JBU)): slow-binding inhibition; UreG dimerisation (UreG dimer): obviously inhibited; bound nickel concentrations of UreG dimers (UreG dimers): markedly decreased

Reference: article PMC6136390, “Coptisine-induced inhibition of Helicobacter pylori: elucidation of specific mechanisms by probing urease active site and its maturation process” (Journal of Enzyme Inhibition and Medicinal Chemistry, 2018)
